Test results published in the supplement of paper PMC10307832.

Key:
Test in all cases: relative viability (nuclei count vs DMSO), 5 days (fraction); higher = more cells survive
[1] = compound: NCC(=O)Nc1ccc(-n2nc(C(F)(F)F)cc2-c2ccc3c(ccc4ccccc43)c2)cc1 + COc1cccc2cc(-c3nc([C@H]4CC[C@H](C(=O)O)CC4)n4ncnc(N)c34)[nH]c12 [OSI-027] (partner 0.5 µM)
Outline: (§1)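 Five library-drug doses in √10 steps were combined with a fixed anchor-drug dose, or a single drug was given alone, by pin tool to lung cancer cell lines in 1536-well plates the day after seeding. Nuclei were stained and counted after 5 days. Relative viability is the nuclei count in treated wells over that in vehicle wells, taken as the median of duplicate plates.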

[2] = compound: NCC(=O)Nc1ccc(-n2nc(C(F)(F)F)cc2-c2ccc3c(ccc4ccccc43)c2)cc1 + C[C@@H](Oc1cc(-c2cnn(C3CCNCC3)c2)cnc1N)c1c(Cl)ccc(F)c1Cl [Crizotinib] (partner 1 µM)
Outline: as §1

[3] = compound: NCC(=O)Nc1ccc(-n2nc(C(F)(F)F)cc2-c2ccc3c(ccc4ccccc43)c2)cc1 + O=C(c1cc(Cc2n[nH]c(=O)c3ccccc23)ccc1F)N1CCN(C(=O)C2CC2)CC1 [Olaparib] (partner 8 µM)
Outline: as §1

[4] = compound: NCC(=O)Nc1ccc(-n2nc(C(F)(F)F)cc2-c2ccc3c(ccc4ccccc43)c2)cc1 + Nc1ncn([C@H]2C[C@H](O)[C@@H](CO)O2)c(=O)n1 [Decitabine] (partner 2 µM)
Outline: as §1

| Cell Line | relative viability ([1]; first compound 0.02 µM) | relative viability ([1]; first compound 0.06325 µM) | relative viability ([1]; first compound 0.2 µM) | relative viability ([1]; first compound 0.6325 µM) | relative viability ([1]; first compound 2 µM) | relative viability ([2]; first compound 0.02 µM) | relative viability ([2]; first compound 0.06325 µM) | relative viability ([2]; first compound 0.2 µM) | relative viability ([2]; first compound 0.6325 µM) | relative viability ([2]; first compound 2 µM) | relative viability ([3]; first compound 0.02 µM) | relative viability ([3]; first compound 0.06325 µM) | relative viability ([3]; first compound 0.2 µM) | relative viability ([3]; first compound 0.6325 µM) | relative viability ([3]; first compound 2 µM) | relative viability ([4]; first compound 0.02 µM) | relative viability ([4]; first compound 0.06325 µM) | relative viability ([4]; first compound 0.2 µM) | relative viability ([4]; first compound 0.6325 µM) | relative viability ([4]; first compound 2 µM) |
| --- | --- | --- | --- | --- | --- | --- | --- | --- | --- | --- | --- | --- | --- | --- | --- | --- | --- | --- | --- | --- |
| HCC-44 | 0.461 | 0.743 | 0.592 | 0.651 | 0.497 | 0.9 | 0.828 | 0.853 | 0.819 | 0.74 | 1.05 | 0.994 | 0.953 | 0.941 | 0.956 | 0.885 | 0.956 | 0.933 | 0.905 | 0.927 |
| HCC-827 | 0.771 | 0.756 | 0.751 | 0.745 | 0.734 | 0.988 | 1.04 | 0.966 | 0.929 | 0.937 | 0.916 | 0.642 | 0.61 | 0.595 | 0.767 | 0.315 | 0.212 | 0.31 | 0.309 | 0.335 |
| NCI-H1623 | 0.439 | 0.475 | 0.395 | 0.494 | 0.432 | – | – | – | – | – | – | – | – | – | – | – | – | – | – | – |
| NCI-H2347 | 0.465 | 0.484 | 0.606 | 0.503 | 0.685 | 0.755 | 0.768 | 0.822 | 0.813 | 0.688 | 0.572 | 0.611 | 0.648 | 0.63 | 0.521 | 0.661 | 0.599 | 0.74 | 0.615 | 0.599 |
| PC-14 | 0.769 | 0.949 | 0.937 | 0.82 | 0.726 | 1.1 | 0.905 | 1.04 | 0.976 | 0.937 | 0.308 | 0.45 | 0.317 | 0.388 | 0.306 | 0.259 | 0.236 | 0.209 | 0.258 | 0.23 |
| NCI-H1651 | 0.655 | 0.929 | 0.628 | 0.584 | 0.803 | 0.803 | 0.853 | 0.875 | 0.881 | 0.952 | 0.177 | 0.177 | 0.175 | 0.175 | 0.173 | 0.594 | 0.351 | 0.591 | 0.619 | 0.613 |
| HARA | 0.434 | 0.582 | 0.597 | 0.549 | 0.596 | 1.06 | 1.01 | 1.04 | 1.05 | 1.13 | 1.07 | 1.25 | 0.762 | 0.982 | 1.06 | 0.581 | 0.611 | 0.537 | 0.654 | 0.528 |
| NCI-H1650 | 0.7 | 0.806 | – | 0.73 | 0.634 | 1.11 | 1.14 | 0.836 | 1.08 | 1.19 | 0.802 | 0.89 | 0.875 | 0.827 | 0.774 | 0.381 | 0.459 | 0.431 | 0.355 | 0.508 |
| NCI-H1395 | 0.709 | 0.688 | 0.693 | 0.642 | 0.686 | – | – | – | – | – | 0.483 | 0.469 | 0.469 | 0.519 | 0.437 | 0.667 | 0.735 | 0.673 | 0.692 | 0.738 |
| LU99A | 0.285 | 0.29 | 0.303 | 0.272 | 0.295 | 0.547 | 0.654 | 0.593 | 0.554 | 0.573 | 0.284 | 0.289 | 0.261 | 0.263 | 0.322 | 0.817 | 0.987 | 0.838 | 0.843 | 0.91 |
| NCI-H1355 | 0.35 | 0.427 | 0.315 | 0.45 | 0.511 | 0.959 | 1.2 | 1.03 | 0.946 | 1.07 | 0.722 | 0.785 | 0.729 | 0.757 | 0.738 | 0.371 | 0.362 | 0.403 | 0.408 | 0.347 |
| HCC-78 | 0.402 | 0.375 | 0.329 | 0.347 | 0.41 | 0.361 | 0.363 | 0.346 | 0.337 | 0.348 | 0.9 | 0.837 | 1.02 | 0.868 | 0.814 | 0.788 | 0.763 | 0.698 | 0.675 | 0.658 |
| NCI-H1563 | 0.785 | 0.786 | 0.761 | 0.771 | 0.719 | 0.887 | 0.91 | 0.881 | 0.835 | 0.997 | – | – | – | – | – | – | – | – | – | – |
| HCC-15 | 0.675 | 0.679 | 0.689 | 0.658 | 0.697 | 0.817 | 0.808 | 0.795 | 0.773 | 0.768 | 0.718 | 0.743 | 0.798 | 0.681 | 0.711 | 0.623 | 0.659 | 0.677 | 0.67 | 0.654 |
| EKVX | 0.729 | 0.646 | 0.673 | 0.674 | 0.737 | 1.2 | 0.973 | 0.896 | 1.06 | 0.868 | 0.973 | 0.966 | 0.882 | 0.935 | 1.13 | 0.365 | 0.368 | 0.369 | 0.393 | 0.361 |
| NCI-H2087 | 0.543 | 0.612 | 0.546 | 0.483 | 0.626 | 0.779 | 0.866 | 0.889 | 0.906 | 0.885 | 0.583 | 0.525 | 0.592 | 0.67 | 0.634 | 0.249 | 0.245 | 0.246 | 0.282 | 0.251 |
| LK-2 | 0.182 | 0.207 | 0.21 | 0.246 | 0.174 | 0.247 | 0.234 | 0.232 | 0.236 | 0.244 | 0.758 | 0.78 | 0.799 | 0.666 | 0.671 | 0.283 | 0.268 | 0.249 | 0.319 | 0.278 |
| NCI-H1437 | 0.889 | 0.898 | 0.877 | 0.881 | 0.951 | 0.946 | 0.85 | 0.964 | 0.94 | 0.894 | 0.623 | 0.62 | 0.688 | 0.651 | 0.664 | 0.563 | 0.576 | 0.634 | 0.616 | 0.547 |
